The target in assay [1] is isolated recombinant JAK1 kinase domain (Homo sapiens (Human), UniProt P23458). Put plainly: JAK1 enzyme assay (Caliper LabChip, peptide phosphorylation). The class given is biochemical. To be noted: isolated recombinant JAK1 kinase domain, 25 μM ATP.
Assay [2] deals with isolated recombinant JAK2 kinase domain (Homo sapiens (Human), UniProt O60674). As to the kind of experiment: JAK2 enzyme assay (Caliper LabChip, peptide phosphorylation). The class given is biochemical. The following applies: 25 μM ATP.
The test system of assay [3] is JAK1-dependent STAT6 phosphorylation downstream of IL-13 stimulation in TF-1 human erythroleukemia cells. Put plainly: JAK1 pathway assay in TF-1 cells (IL-13-pSTAT6, MSD). Type of assay: cell-based. To be noted: Homo sapiens, TF-1, TF-1 cells, read-out: IL13-pSTAT6 EC50_TF-1. An outline of the steps: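 Inhibitors were added to TF-1 cells (GM-CSF-starved, serum-free) for 30 min or to BEAS-2B cells (complete medium) for 1 hr at 37° C. MSD detected pSTAT6.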

isolated recombinant JAK2 kinase domain, sequence (O60674 849-1124): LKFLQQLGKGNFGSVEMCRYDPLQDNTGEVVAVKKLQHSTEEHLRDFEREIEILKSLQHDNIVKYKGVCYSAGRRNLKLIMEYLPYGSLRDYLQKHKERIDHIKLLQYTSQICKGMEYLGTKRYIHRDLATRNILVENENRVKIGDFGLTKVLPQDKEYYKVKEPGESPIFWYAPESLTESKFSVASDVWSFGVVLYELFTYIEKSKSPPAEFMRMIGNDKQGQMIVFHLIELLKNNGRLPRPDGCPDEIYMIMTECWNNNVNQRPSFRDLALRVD
isolated recombinant JAK1 kinase domain, sequence (P23458 875-1153): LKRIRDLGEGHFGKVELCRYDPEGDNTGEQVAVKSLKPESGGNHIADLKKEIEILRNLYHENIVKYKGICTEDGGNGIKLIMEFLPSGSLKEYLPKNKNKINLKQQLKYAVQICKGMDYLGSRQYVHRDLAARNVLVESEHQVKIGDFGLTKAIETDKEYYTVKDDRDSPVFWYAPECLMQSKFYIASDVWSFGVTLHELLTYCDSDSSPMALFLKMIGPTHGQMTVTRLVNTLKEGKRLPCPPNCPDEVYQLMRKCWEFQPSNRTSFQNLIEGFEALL

By Ki is commonly meant the dissociation constant of the complex between target and ligand, obtained from inhibition or displacement. Regarding `Nc1nn2cccnc2c1C(=O)Nc1cn(C2CCN(CCCN3CCN(Cc4ccccc4)C3=O)CC2)nc1-c1cc(Cl)ccc1OC(F)F` [Example 166, 2-amino-N-[1-[1-[3-(3-benzyl-2-oxo-imidazolidin-1-yl)propyl]-4-piperidyl]-3-[5-chloro-2-(difluoromethoxy)phenyl]pyrazol-4-yl]pyrazolo[1,5-a]pyrimidine-3-carboxamide], the Ki in assay [1] turned out to be 0.91 nM; in assay [2], 0.26 nM. Further, the EC50 in assay [3] amounted to 22.9 nM.
For `Nc1nn2cccnc2c1C(=O)Nc1cn(C2CCN(CCCC(=O)NCc3ccccc3)CC2)nc1-c1cc(Cl)ccc1OC(F)F` [Example 167, 2-amino-N-[1-[1-[4-(benzylamino)-4-oxo-butyl]-4-piperidyl]-3-[5-chloro-2-(difluoromethoxy)phenyl]pyrazol-4-yl]pyrazolo[1,5-a]pyrimidine-3-carboxamide], in that order: 0.53 nM, 0.18 nM and 19.7 nM.
On to `CNC(=O)CCCN1CCC(n2cc(NC(=O)c3cnn4cccnc34)c(-c3cc(Cl)ccc3OC(F)F)n2)CC1` [Example 168, N-[3-[5-chloro-2-(difluoromethoxy)phenyl]-1-[1-[4-(methylamino)-4-oxo-butyl]-4-piperidyl]pyrazol-4-yl]pyrazolo[1,5-a]pyrimidine-3-carboxamide], for which the Ki stood at 1.47 nM in assay [1] and 0.29 nM in assay [2]. Moreover, the EC50 in assay [3] came out at 7.7 nM.
For `O=C(Nc1cn(C2CCN(CCCC(=O)N3CCOCC3)CC2)nc1-c1cc(Cl)ccc1OC(F)F)c1cnn2cccnc12` [Example 169, N-[3-[5-chloro-2-(difluoromethoxy)phenyl]-1-[1-(4-morpholino-4-oxo-butyl)-4-piperidyl]pyrazol-4-yl]pyrazolo[1,5-a]pyrimidine-3-carboxamide], the Ki in assay [1] stood at 1.16 nM; in assay [2], 0.22 nM. The EC50 in assay [3] stood at 6.8 nM.
For the compound `NC(=O)CCCN1CCC(n2cc(NC(=O)c3cnn4cccnc34)c(-c3cc(Cl)ccc3OC(F)F)n2)CC1` [Example 170, N-[1-[1-(4-amino-4-oxo-butyl)-4-piperidyl]-3-[5-chloro-2-(difluoromethoxy)phenyl]pyrazol-4-yl]pyrazolo[1,5-a]pyrimidine-3-carboxamide], the values for the Ki in assay [1] and in assay [2] were 1.67 nM and 0.25 nM, respectively. Further, the EC50 in assay [3] turned out to be 11.4 nM.
Take `CN1CCCC(n2cc(NC(=O)c3c(N)nn4cccnc34)c(-c3cc(Cl)ccc3OC(F)F)n2)CC1` (stereo not drawn) [Example 172, 2-amino-N-[3-[5-chloro-2-(difluoromethoxy)phenyl]-1-(1-methylazepan-4-yl)pyrazol-4-yl]pyrazolo[1,5-a]pyrimidine-3-carboxamide]: the inhibitory constant (Ki) was found to be 0.88 nM in assay [1] and 0.15 nM in assay [2]. Also, the EC50 in assay [3] was found to be 15.9 nM.
Consider `CC(=O)N1CCC(CN2CCC(n3cc(NC(=O)c4c(N)nn5cccnc45)c(-c4cc(Cl)ccc4OC(F)F)n3)CC2)CC1` [Example 173, N-[1-[1-[(1-acetyl-4-piperidyl)methyl]-4-piperidyl]-3-[5-chloro-2-(difluoromethoxy)phenyl]pyrazol-4-yl]-2-amino-pyrazolo[1,5-a]pyrimidine-3-carboxamide], for which the Ki turned out to be 0.58 nM in assay [1] and 0.13 nM in assay [2]. Moreover, in assay [3], the EC50 was determined as 4.8 nM.
For `CC(C)CN1CCC(n2cc(NC(=O)c3c(N)nn4cccnc34)c(-c3cc(Cl)ccc3OC(F)F)n2)CC1` [Example 174, 2-amino-N-[3-[5-chloro-2-(difluoromethoxy)phenyl]-1-(1-isobutyl-4-piperidyl)pyrazol-4-yl]pyrazolo[1,5-a]pyrimidine-3-carboxamide] the same measures were 0.67 nM, 0.09 nM and 12.3 nM.
As to `CCOC(=O)CCCN1CCC(n2cc(NC(=O)c3c(N)nn4cccnc34)c(-c3cc(Cl)ccc3OC(F)F)n2)CC1` [Example 175, ethyl 4-[4-[4-[(2-aminopyrazolo[1,5-a]pyrimidine-3-carbonyl)amino]-3-[5-chloro-2-(difluoromethoxy)phenyl]pyrazol-1-yl]-1-piperidyl]butanoate], the Ki in assay [1] amounted to 0.78 nM; in assay [2], 0.13 nM. In assay [3], the EC50 is 13.4 nM.
For `Nc1nn2cccnc2c1C(=O)Nc1cn(C2CCN(CCCO)CC2)nc1-c1cc(Cl)ccc1OC(F)F` [Example 176, 2-amino-N-[3-[5-chloro-2-(difluoromethoxy)phenyl]-1-[1-(3-hydroxypropyl)-4-piperidyl]pyrazol-4-yl]pyrazolo[1,5-a]pyrimidine-3-carboxamide] the same measures were 0.68 nM, 0.12 nM and 12.7 nM.
As for `CS(=O)(=O)CCCN1CCC(n2cc(NC(=O)c3c(N)nn4cccnc34)c(-c3cc(Cl)ccc3OC(F)F)n2)CC1` [Example 177, 2-amino-N-[3-[5-chloro-2-(difluoromethoxy)phenyl]-1-[1-(3-methylsulfonylpropyl)-4-piperidyl]pyrazol-4-yl]pyrazolo[1,5-a]pyrimidine-3-carboxamide], the inhibition constant Ki amounted to 0.45 nM in assay [1] and 0.09 nM in assay [2]. Besides, the EC50 in assay [3] was determined as 15 nM.
As to `Nc1nn2cccnc2c1C(=O)Nc1cn(C2CCN(Cc3ccccc3)CC2)nc1-c1cc(Cl)ccc1OC(F)F` [Example 178, 2-amino-N-[1-(1-benzyl-4-piperidyl)-3-[5-chloro-2-(difluoromethoxy)phenyl]pyrazol-4-yl]pyrazolo[1,5-a]pyrimidine-3-carboxamide], the inhibition constant Ki in assay [1] worked out at 1.23 nM; in assay [2], 0.43 nM. In addition, in assay [3], the EC50 amounted to 83.9 nM.
As for `Nc1nn2cccnc2c1C(=O)Nc1cn(C2CCN(CCCCc3ccccc3)CC2)nc1-c1cc(Cl)ccc1OC(F)F` [Example 179, 2-amino-N-[3-[5-chloro-2-(difluoromethoxy)phenyl]-1-[1-(4-phenylbutyl)-4-piperidyl]pyrazol-4-yl]pyrazolo[1,5-a]pyrimidine-3-carboxamide], the figures for the Ki in assay [1] and in assay [2] were 3.04 nM and 0.9 nM, respectively. Moreover, the EC50 in assay [3] worked out at 130 nM.
For `Nc1nn2cccnc2c1C(=O)Nc1cn(C2CCN(CCOCc3ccccc3)CC2)nc1-c1cc(Cl)ccc1OC(F)F` [Example 180, 2-amino-N-[1-[1-(2-benzyloxyethyl)-4-piperidyl]-3-[5-chloro-2-(difluoromethoxy)phenyl]pyrazol-4-yl]pyrazolo[1,5-a]pyrimidine-3-carboxamide] the same measures were 1.25 nM, 0.35 nM and 38.4 nM.
With `Nc1nn2cccnc2c1C(=O)Nc1cn(C2CCN(CCCCOCCc3ccccc3)CC2)nc1-c1cc(Cl)ccc1OC(F)F` [Example 181, 2-amino-N-[3-[5-chloro-2-(difluoromethoxy)phenyl]-1-[1-[4-(2-phenylethoxy)butyl]-4-piperidyl]pyrazol-4-yl]pyrazolo[1,5-a]pyrimidine-3-carboxamide], the figures for the Ki in assay [1] and in assay [2] were 1.99 nM and 0.48 nM, respectively. Besides, in assay [3], the EC50 came to 95.6 nM.
On to `CN1CC[C@H](n2cc(NC(=O)c3c(N)nn4cccnc34)c(-c3cc(Cl)ccc3OC(F)F)n2)C1` [Example 182, 2-amino-N-[3-[5-chloro-2-(difluoromethoxy)phenyl]-1-[(3S)-1-methylpyrrolidin-3-yl]pyrazol-4-yl]pyrazolo[1,5-a]pyrimidine-3-carboxamide], for which the inhibition constant Ki in assay [1] amounted to 0.49 nM; in assay [2], 0.2 nM. Further, in assay [3], the EC50 came to 8.9 nM.
For the compound `CN1CC[C@@H](n2cc(NC(=O)c3c(N)nn4cccnc34)c(-c3cc(Cl)ccc3OC(F)F)n2)C1` [Example 183, 2-amino-N-[3-[5-chloro-2-(difluoromethoxy)phenyl]-1-[(3R)-1-methylpyrrolidin-3-yl]pyrazol-4-yl]pyrazolo[1,5-a]pyrimidine-3-carboxamide], the Ki in assay [1] was determined as 0.49 nM; in assay [2] it was 0.23 nM. The EC50 in assay [3] stood at 6.8 nM.
For the compound `Nc1nn2cccnc2c1C(=O)Nc1cn([C@H]2CCNC2)nc1-c1cc(Cl)ccc1OC(F)F` [Example 186, 2-amino-N-[3-[5-chloro-2-(difluoromethoxy)phenyl]-1-[(3S)-pyrrolidin-3-yl]pyrazol-4-yl]pyrazolo[1,5-a]pyrimidine-3-carboxamide], the inhibitory constant (Ki) came out at 0.71 nM in assay [1] and 0.2 nM in assay [2]. Further, the EC50 in assay [3] was 12.3 nM.
For `CN(C)CCC1CCN(c2nc(-c3cc(Cl)ccc3OC(F)F)c(NC(=O)c3cnn4cccnc34)s2)CC1` [Example 191, N-[4-[5-chloro-2-(difluoromethoxy)phenyl]-2-[4-[2-(dimethylamino)ethyl]-1-piperidyl]thiazol-5-yl]pyrazolo[1,5-a]pyrimidine-3-carboxamide], in that order: 2.93 nM, 2.92 nM and 10.5 nM.
For `CN(CCc1ccccc1)C1CCN(c2nc(-c3cc(Cl)ccc3OC(F)F)c(NC(=O)c3cnn4cccnc34)s2)CC1` [Example 192, N-[4-[5-chloro-2-(difluoromethoxy)phenyl]-2-[4-[methyl(2-phenylethyl)amino]-1-piperidyl]thiazol-5-yl]pyrazolo[1,5-a]pyrimidine-3-carboxamide], in that order: 5 nM, 3.72 nM and 272 nM.
For `CN(CCCC(N)=O)C1CCN(c2nc(-c3cc(Cl)ccc3OC(F)F)c(NC(=O)c3cnn4cccnc34)s2)CC1` [Example 193, N-[2-[4-[(4-amino-4-oxo-butyl)-methyl-amino]-1-piperidyl]-4-[5-chloro-2-(difluoromethoxy)phenyl]thiazol-5-yl]pyrazolo[1,5-a]pyrimidine-3-carboxamide] the same measures were 2.23 nM, 1.46 nM and 23.5 nM.

The record behind these values is patent US9346815B2, “5-chloro-2-difluoromethoxyphenyl pyrazolopyrimidine compounds, compositions and methods of use thereof” (Genentech, Inc., priority 2014, dated 2016).
